Measurements taken from the NIST ThermoML archive (doi:10.1016/j.fluid.2009.06.008).

Assay: mn = molality of the nth substance listed, in mol/kg
Details: 101 kPa, Liquid; for viscosity: Capillary tube (Ostwald / Ubbelohde) method; for mass density: Vibrating tube method

O=C[C@H](O)[C@@H](O)[C@H](O)[C@H](O)CO [D-glucose] + O
Details	mass density [kg/m3]	viscosity [mPa·s]
278.15 K, m1 = 0.2	1019.65	1.694
278.15 K, m1 = 0.4	1031.6	1.873
278.15 K, m1 = 0.6	1043.55	2.074
278.15 K, m1 = 0.8	1055.51	2.3
278.15 K, m1 = 1	1067.46	2.536
278.15 K, m1 = 1.2	1079.41	2.802
283.15 K, m1 = 0.2	1017.74	1.451
283.15 K, m1 = 0.4	1029.58	1.599
283.15 K, m1 = 0.6	1041.42	1.766
283.15 K, m1 = 0.8	1053.25	1.953
283.15 K, m1 = 1	1065.09	2.147
283.15 K, m1 = 1.2	1076.93	2.374
288.15 K, m1 = 0.2	1015.54	1.258
288.15 K, m1 = 0.4	1027.28	1.383
288.15 K, m1 = 0.6	1039.02	1.524
288.15 K, m1 = 0.8	1050.75	1.682
288.15 K, m1 = 1	1062.49	1.849
288.15 K, m1 = 1.2	1074.22	2.029
293.15 K, m1 = 0.2	1013.09	1.104
293.15 K, m1 = 0.4	1024.74	1.21
293.15 K, m1 = 0.6	1036.38	1.329
293.15 K, m1 = 0.8	1048.03	1.46
293.15 K, m1 = 1	1059.67	1.619
293.15 K, m1 = 1.2	1071.32	1.754
298.15 K, m1 = 0.2	1010.39	0.9748
298.15 K, m1 = 0.4	1023.11	1.066
298.15 K, m1 = 0.6	1035.26	1.166
298.15 K, m1 = 0.8	1046.85	1.272
298.15 K, m1 = 1	1057.94	1.395
298.15 K, m1 = 1.2	1068.55	1.528
303.15 K, m1 = 0.2	–	0.8685
303.15 K, m1 = 0.4	1018.93	0.9469
303.15 K, m1 = 0.6	1030.42	1.035
303.15 K, m1 = 0.8	1041.92	1.132
303.15 K, m1 = 1	1053.41	1.236
303.15 K, m1 = 1.2	1064.9	1.343
308.15 K, m1 = 0.2	1004.38	0.7811
308.15 K, m1 = 0.4	1015.81	0.8496
308.15 K, m1 = 0.6	1027.24	0.9264
308.15 K, m1 = 0.8	1038.67	1.01
308.15 K, m1 = 1	1050.1	1.096
308.15 K, m1 = 1.2	1061.53	1.194
